± gives the standard deviation of the reports.
Compound | glass transition temperature [°C]
*/C=C/C1CC(*)C(C#N)(CC)C1 (repeat unit) | 134.00
*c1ccc2c(c1)Sc1cc(-c3sc4cc(*)sc4c3CCCCC)ccc1N2CCCCCCCCCCCC (repeat unit) | 136.00
*CCCCCNC(=S)N* (repeat unit) | 55.00
*CC(*)c1ccc(O)cc1 (repeat unit) [Poly(4-hydroxystyrene)] | 157.42 ± 0.8
*CC(*)OC(=O)C(F)(F)C(F)(F)C(F)(F)C(F)(F)F (repeat unit) | 20.00
*c1ccc(OC(=O)Nc2ccc(-c3ccc(NC(=O)Oc4ccc(-c5nc(-c6ccc([N+](=O)[O-])cc6)[nH]c5*)cc4)cc3OC)c(OC)c2)cc1 (repeat unit) | 202.00
*OC(CC)CC(*)=O (repeat unit) | -15.40
*CC(*)(C)C(=O)OCCCCCCOc1ccc(/N=N/c2ccc(OCCCC)cc2)cc1 (repeat unit) | 79.00
*Oc1ccc(CC(NC(=O)CCc2ccc(OC(=O)CCCCCCC(*)=O)cc2)C(=O)OCc2ccccc2)cc1 (repeat unit) | 47.00
*CCCCCOC(=O)O* (repeat unit) | -42.9
*CCCCCCCCCCSS* (repeat unit) | -65.00
*N=P(*)(CC)c1ccccc1 (repeat unit) | 20.00
*C(=O)Nc1ccc(C2(c3ccc(NC(=O)c4ccc5c(c4)C(=O)N(c4ccc(Oc6ccc(N7C(=O)c8ccc(*)cc8C7=O)cc6)cc4)C5=O)cc3)c3ccccc3-c3ccccc32)cc1 (repeat unit) | 240.00
*CC(=O)NCCCCCCNC(=O)COc1ccc(O*)cc1 (repeat unit) | 67.00
*Oc1ccc(Oc2ccc(C(=O)Nc3ccc(Oc4ccc(S(=O)(=O)c5ccc(Oc6ccc(NC(=O)c7ccc(*)cc7)cc6)cc5)cc4)cc3)cc2)cc1 (repeat unit) | 220.00
*/C=C/c1cc(OCC(CC)CCCC)c(*)cc1-c1ccc(F)c(C(F)(F)F)c1 (repeat unit) | 122.00
*NC(CCC(=O)OCCCCC)C(*)=O (repeat unit) | -20.00
*CCCCCCCCCCNC(=O)CCP(C)(=O)CCC(=O)N* (repeat unit) | 45.50
*CCCNC(=O)C(OC)C(OC)C(=O)N* (repeat unit) | 123.00
*CC(C)(/C=C(/*)C)C(=O)OC (repeat unit) | 24.00
*c1ccc(Oc2ccc(-c3cnnc(-c4cccc(-c5ncc(*)nn5)n4)n3)cc2)cc1 (repeat unit) | 223.00
*OC(CCOc1ccccc1)CC(*)=O (repeat unit) | 20.00
*Oc1ccc(S(=O)(=O)c2ccc(Oc3c(C)cc(C(C)(C)c4cc(C)c(*)c(C)c4)cc3C)cc2C(O)(C(F)(F)F)C(F)(F)F)c(C(O)(C(F)(F)F)C(F)(F)F)c1 (repeat unit) | 187.00
*Oc1cccc(C(*)=O)c1 (repeat unit) | 162.00
*Nc1ccc(NC(=O)c2ccc(C(c3ccc(C(*)=O)c(C(=O)OCC)c3)(C(F)(F)F)C(F)(F)F)cc2C(=O)OCC)cc1 (repeat unit) | 270.00
*OC(COC(*)=O)COC(C)(C)C (repeat unit) | 18.00
*CC(*)CNc1ccc([N+](=O)[O-])c(C(F)(F)F)c1 (repeat unit) | 153.00

Continued, values first:

glass transition temperature [°C] | Compound
280.50 | *c1ccc(Oc2ccc(S(=O)(=O)c3ccc(Oc4ccc(-c5c6c(c(*)c7ccccc57)C(=O)N(c5cccc(C(F)(F)F)c5)C6=O)cc4)cc3)cc2)cc1 (repeat unit)
225.00 | *OC(=O)NC1CCC(CC2CCC(NC(=O)OC3CC4CC(*)CC(C3)O4)CC2)CC1 (repeat unit)
251.00 | *c1ccc(Oc2ccc(C(=O)c3cccc(C(=O)c4ccc(Oc5ccc(-c6c7c(c(*)c8ccccc68)C(=O)N(C)C7=O)cc5)cc4)c3)cc2)cc1 (repeat unit)
302.00 | *Nc1ccc(Cc2ccc(NC(=O)c3cc(NC(=O)c4ccncc4)cc(C(*)=O)c3)cc2)cc1 (repeat unit)
224.00 | *c1cccc(N2C(=O)c3ccc(Oc4ccccc4Oc4ccc5c(c4)C(=O)N(*)C5=O)cc3C2=O)c1 (repeat unit)
180.00 | *Oc1ccc(C(C)(C)c2ccc(Oc3ccc(*)nn3)cc2)cc1 (repeat unit)
49.00 | *CCCCCCCCCCNC(=O)CCCCCCCCCCC(=O)N* (repeat unit)
209.00 | *CCCC(=O)Nc1ccc(NC(=O)CCCN2C(=O)c3ccc(C(=O)c4ccc5c(c4)C(=O)N(*)C5=O)cc3C2=O)cc1 (repeat unit)
57.21 | *CCCCCCC(=O)Oc1ccc(OC(=O)c2ccc3c(c2)C(=O)N(*)C3=O)c(C)c1 (repeat unit)
287.00 | *c1cccc(C(=O)c2c(C)cc(C)c(N3C(=O)c4ccc(Oc5ccc6c(c5)C(=O)N(*)C6=O)cc4C3=O)c2C)c1 (repeat unit)
208.00 | *Nc1ccc(NC(=O)Cc2cc(CC(*)=O)c(C)cc2C)cc1 (repeat unit)
220.00 | */C=C/C1CC(*)C2C(=O)N(c3ccccc3)C(=O)C12 (repeat unit)
232.00 | *c1ccc(OC(=O)c2ccc(C(=O)Oc3ccc(-c4nc5ccccc5nc4*)cc3)cc2)cc1 (repeat unit)
17.00 | *CCCCCCNC(=O)CCC(C)CC(=O)N* (repeat unit)
62.00 | *CC(*)(C)C(=O)OCCCCCCCCCCOc1ccc(/N=N/c2ccc(OC)cc2)cc1 (repeat unit)
108.00 | *c1ccc(C(C#N)(C(=O)OCC)C(*)(C#N)C(=O)OCC)cc1 (repeat unit)
324.00 | *c1ccc2c(c1)C(=O)N(c1cccc(C(=O)Nc3ccc(-c4ccc(NC(=O)c5cccc(N6C(=O)c7ccc(C(*)(C(F)(F)F)C(F)(F)F)cc7C6=O)c5)cc4)cc3)c1)C2=O (repeat unit)
320.20 | *c1ccc(Oc2ccc(N3C(=O)c4ccc(C(=O)c5ccc6c(c5)C(=O)N(c5ncc(*)s5)C6=O)cc4C3=O)cc2)cc1 (repeat unit)
270.00 | *Oc1c(Cl)cc(C(c2cc(Cl)c(OC(*)=O)c(Cl)c2)C2CC3CCC2C3)cc1Cl (repeat unit)
62.00 | *Oc1ccc(CC(NC(=O)CCc2ccc(OC(=O)CCCC(*)=O)cc2)C(=O)OCC(C)C)cc1 (repeat unit)

glass transition temperature [°C] | Compound
248.00 | *Oc1ccc(Oc2ccc(C(=O)c3ccc(*)c(S(=O)(=O)O)c3)cc2S(=O)(=O)O)cc1S(=O)(=O)O (repeat unit)
385.00 | *c1c(C)cc(C)c(N2C(=O)c3ccc(-c4ccc5c(c4)C(=O)N(*)C5=O)cc3C2=O)c1C (repeat unit)
45.00 | *Oc1cc(OC(=O)c2ccc(OCCCC)cc2)c(OC(=O)CCCCCC(*)=O)cc1OC(=O)c1ccc(OCCCC)cc1 (repeat unit)
45.00 | *c1ccc(-c2ccc([Si](C)(C)[Si](*)(C)C)s2)s1 (repeat unit)
390.00 | *c1ccc(C2(c3ccc(-c4cc(-c5ccccc5)c5cc(C6(c7ccc8nc(*)cc(-c9ccccc9)c8c7)c7ccccc7-c7ccccc76)ccc5n4)cc3)c3ccccc3-c3ccccc32)cc1 (repeat unit)
186.00 | *Oc1ccc(S(=O)(=O)c2ccc(Oc3ccc(C(C)(C)c4ccc(*)cc4)cc3)cc2)cc1 (repeat unit)
245.00 | *c1ccc(Oc2ccc(C(=O)c3ccc(Oc4ccc(-c5c6c(c(*)c7ccccc57)C(=O)N(c5ccccc5-c5ccccc5)C6=O)cc4)cc3)cc2)cc1 (repeat unit)
280.00 | *c1ccc2c(c1)C(=O)N(c1c(C)cc(C)c(C(=O)c3cccc(N4C(=O)c5ccc(C(*)(C(F)(F)F)C(F)(F)F)cc5C4=O)c3)c1C)C2=O (repeat unit)
60.00 | *CCCCCCCCCCCOC(=O)c1cc(OCCCCCCCCOc2ccc(/N=N/c3ccc(OC)cc3)cc2)cc(C(=O)OCCCCCCCCCCCOc2ccc(-c3ccc(O*)cc3)cc2)c1 (repeat unit)
122.00 | *Oc1ccc(C(=O)c2ccc(C(=O)c3ccc(Oc4cccc(Cc5cccc(*)c5)c4)cc3)cc2)cc1 (repeat unit)
64 ± 1.2 | *CCOC(=O)c1ccc(C(=O)O*)c2ccccc12 (repeat unit) [Poly(ethylene- 1 ,4-naphthalenedicarboxylate) ]
35.00 | *Oc1ccc(CC(NC(=O)CCc2ccc(OC(=O)CC(C)CCC(*)=O)cc2)C(=O)OCCCC)cc1 (repeat unit)
140.00 | *CCN(CCOC(=O)Nc1ccc(-c2ccc(NC(=O)O*)c(OC)c2)cc1OC)c1ccc(/N=N/c2ccc([N+](=O)[O-])cc2)cc1 (repeat unit)
46.00 | *CC(*)C(=O)Oc1ccccc1C(=O)OC (repeat unit)
300.00 | *c1ccc(Oc2ccc(-c3cc(-c4ccc(Oc5ccc(-c6cc(*)nc7ccccc67)cc5)cc4)c4ccccc4n3)cc2)cc1 (repeat unit)
41.00 | *CCCCCOC(=O)CCCCCCCCCCN1C(=O)c2ccc(-c3ccc(-c4ccc5c(c4)C(=O)N(CCCCCCCCCCC(=O)OCCCCCN4C(=O)c6ccc(-c7ccc8c(c7)C(=O)N(*)C8=O)cc6C4=O)C5=O)cc3)cc2C1=O (repeat unit)
202.00 | *c1ccc(Sc2ccc(Sc3ccc(Sc4ccc(S(*)(=O)=O)cc4S(=O)(=O)O)cc3)cc2)c(S(=O)(=O)O)c1 (repeat unit)
115.00 | *CC(*)c1cc(C(=O)Oc2ccc(OC)cc2)ccc1C(=O)Oc1ccc(OC)cc1 (repeat unit)
149.00 | *Oc1ccc(C(c2ccc(Oc3c(F)c(F)c(C(=O)c4c(F)c(F)c(*)c(F)c4F)c(F)c3F)cc2)(C(F)(F)F)C(F)(F)F)cc1 (repeat unit)
46.00 | *CCCCCCOC(=O)c1cc(OCCCCCCOc2ccc(/N=N/c3ccc(C#N)cc3)cc2)cc(C(=O)OCCCCCCn2c(=O)c3cc4c(=O)n(*)c(=O)c4cc3c2=O)c1 (repeat unit)
